Laboratory results as given in the NIST ThermoML archive (doi:10.1021/je100552a).
Numbers after ± are expanded uncertainties.

What was measured:
[1] = 101.33 kPa, Liquid; for viscosity: Capillary tube (Ostwald / Ubbelohde) method; for mass density: Vibrating tube method
[2] = refractive index (Na D-line) (dimensionless); conditions: 101.33 kPa, Liquid, Standard Abbe refractometry

Row | Compound | viscosity ([1]; 298.15 K) | mass density ([1]; 298.15 K) | viscosity ([1]; 303.15 K) | mass density ([1]; 303.15 K) | viscosity ([1]; 308.15 K) | mass density ([1]; 308.15 K) | viscosity ([1]; 313.15 K) | mass density ([1]; 313.15 K) | refractive index ([2]; 298.15 K) | refractive index ([2]; 303.15 K) | refractive index ([2]; 308.15 K) | refractive index ([2]; 313.15 K)
1 | ClCCCl [1,2-dichloroethane] | 0.7902 ± 0.0064 mPa·s | 1246.7 ± 0.4 kg/m3 | 0.7291 ± 0.006 mPa·s | 1240.8 ± 0.4 kg/m3 | 0.6739 ± 0.0056 mPa·s | 1230.5 ± 0.4 kg/m3 | 0.6441 ± 0.0053 mPa·s | 1225.6 ± 0.4 kg/m3 | 1.4416 ± 0.0005 | 1.4383 ± 0.0005 | 1.4336 ± 0.0005 | 1.4311 ± 0.0005
2 | Brc1ccccc1 [bromobenzene] | 1.082 ± 0.0085 mPa·s | 1489.4 ± 0.7 kg/m3 | 1.015 ± 0.008 mPa·s | 1481.1 ± 0.7 kg/m3 | 0.954 ± 0.0076 mPa·s | 1475.8 ± 0.7 kg/m3 | 0.878 ± 0.0071 mPa·s | 1467.3 ± 0.6 kg/m3 | 1.5578 ± 0.0005 | 1.5538 ± 0.0005 | 1.5514 ± 0.0005 | 1.5468 ± 0.0005
3 | Clc1ccccc1 [chlorobenzene] | 0.7568 ± 0.0062 mPa·s | 1100.4 ± 0.3 kg/m3 | 0.7258 ± 0.0059 mPa·s | 1094.9 ± 0.3 kg/m3 | 0.677 ± 0.0056 mPa·s | 1089.4 ± 0.3 kg/m3 | 0.624 ± 0.0052 mPa·s | 1083.9 ± 0.3 kg/m3 | 1.5222 ± 0.0005 | 1.5192 ± 0.0005 | 1.5163 ± 0.0005 | 1.5115 ± 0.0005
